Assay [1] deals with T1, HER2 (Homo sapiens, UniProt P04626).
T1 construct: gene ERBB2; Km ATP
Kind of assay: biochemical. More on the design: Purified kinase inhibition, Z'-LYTE (HER, mTOR, DNA-PK) or Adapta (PI3K), ATP at Km apparent. On the procedure:
(§1) IC50 values were determined at a concentration of ATP corresponding to the Km apparent for that kinase.

In assay [2] the target is T2, HER4 (Homo sapiens, UniProt Q15303).
T2 construct: gene ERBB4; Km ATP
Kind of assay: biochemical. Set-up: Purified kinase inhibition, Z'-LYTE (HER, mTOR, DNA-PK) or Adapta (PI3K), ATP at Km apparent. How it is done: as §1

Assay [3] has as its target T3, mTOR (Homo sapiens, UniProt P42345).
T3 construct: Km ATP
Kind of assay: biochemical. Set-up: Purified kinase inhibition, Z'-LYTE (HER, mTOR, DNA-PK) or Adapta (PI3K), ATP at Km apparent. On the procedure:
as §1

The target in assay [4] is EGFR (Homo sapiens, UniProt P00533). Kind of assay: biochemical. Set-up: Km ATP; Purified kinase inhibition, Z'-LYTE (HER, mTOR, DNA-PK) or Adapta (PI3K), ATP at Km apparent. How it is done:
as §1

In assay [5] the target is T4, PI3Kβ (Homo sapiens, UniProt P42338).
T4 construct: gene PIK3CB; Km ATP
The assay is described as follows: biochemical. More on the design: Purified kinase inhibition, Z'-LYTE (HER, mTOR, DNA-PK) or Adapta (PI3K), ATP at Km apparent. On the procedure:
as §1

For assay [6], the target named is T5, PI3Kδ (Homo sapiens, UniProt O00329).
T5 construct: gene PIK3CD; Km ATP
Kind of assay: biochemical. More on the design: Purified kinase inhibition, Z'-LYTE (HER, mTOR, DNA-PK) or Adapta (PI3K), ATP at Km apparent. On the procedure: as §1

Assay [7] concerns the target PI3Kα (Homo sapiens, UniProt P42336). The assay is described as follows: biochemical. More on the design: gene PIK3CA; Km ATP; Purified kinase inhibition, Z'-LYTE (HER, mTOR, DNA-PK) or Adapta (PI3K), ATP at Km apparent. On the procedure:
as §1

Assay [8] has as its target T6, PI3Kγ (Homo sapiens, UniProt P48736). Kind of assay: biochemical. Set-up: gene PIK3CG; Km ATP; Purified kinase inhibition, Z'-LYTE (HER, mTOR, DNA-PK) or Adapta (PI3K), ATP at Km apparent. On the procedure:
as §1

The target of assay [9] is T6, PI3Kγ. Kind of assay: biochemical kinase assay at ATP Km apparent. More on the design: gene PIK3CG.

pIC50: −log10 of the molar value.

T2 sequence (Q15303 whole entry): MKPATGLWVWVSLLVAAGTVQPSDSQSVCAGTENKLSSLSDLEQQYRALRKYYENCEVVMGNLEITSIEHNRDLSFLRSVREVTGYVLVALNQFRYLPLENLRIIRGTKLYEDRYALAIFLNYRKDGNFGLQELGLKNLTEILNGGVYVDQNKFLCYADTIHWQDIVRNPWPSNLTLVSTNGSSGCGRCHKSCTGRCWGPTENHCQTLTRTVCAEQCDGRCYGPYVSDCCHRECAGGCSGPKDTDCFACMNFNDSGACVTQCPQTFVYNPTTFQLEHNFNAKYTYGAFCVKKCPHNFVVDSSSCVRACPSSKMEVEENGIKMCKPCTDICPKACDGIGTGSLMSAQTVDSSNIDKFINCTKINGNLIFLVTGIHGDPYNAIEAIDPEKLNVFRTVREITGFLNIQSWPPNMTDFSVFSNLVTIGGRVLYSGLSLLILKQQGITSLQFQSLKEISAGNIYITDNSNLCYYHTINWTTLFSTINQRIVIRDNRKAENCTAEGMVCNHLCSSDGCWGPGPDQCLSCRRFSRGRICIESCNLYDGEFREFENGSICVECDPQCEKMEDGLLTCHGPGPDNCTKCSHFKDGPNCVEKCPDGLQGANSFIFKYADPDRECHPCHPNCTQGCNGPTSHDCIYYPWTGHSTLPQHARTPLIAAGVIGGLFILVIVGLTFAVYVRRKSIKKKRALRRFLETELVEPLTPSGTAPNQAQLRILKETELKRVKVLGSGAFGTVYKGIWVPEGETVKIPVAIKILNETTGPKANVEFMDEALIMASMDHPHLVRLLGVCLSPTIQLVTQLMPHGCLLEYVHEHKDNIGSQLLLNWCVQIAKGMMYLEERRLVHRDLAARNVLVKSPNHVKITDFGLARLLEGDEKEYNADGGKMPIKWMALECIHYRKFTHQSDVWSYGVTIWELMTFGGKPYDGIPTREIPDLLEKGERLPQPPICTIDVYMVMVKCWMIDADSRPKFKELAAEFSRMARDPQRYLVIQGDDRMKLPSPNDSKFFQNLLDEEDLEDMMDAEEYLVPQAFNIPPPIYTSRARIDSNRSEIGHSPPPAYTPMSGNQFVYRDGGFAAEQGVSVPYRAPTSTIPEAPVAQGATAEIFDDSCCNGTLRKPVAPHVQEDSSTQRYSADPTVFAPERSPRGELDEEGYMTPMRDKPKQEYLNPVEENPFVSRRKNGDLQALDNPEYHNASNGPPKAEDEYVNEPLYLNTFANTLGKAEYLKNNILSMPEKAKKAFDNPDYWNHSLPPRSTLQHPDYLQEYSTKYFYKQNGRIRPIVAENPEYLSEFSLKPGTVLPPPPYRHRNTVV
T1 sequence (P04626 whole entry): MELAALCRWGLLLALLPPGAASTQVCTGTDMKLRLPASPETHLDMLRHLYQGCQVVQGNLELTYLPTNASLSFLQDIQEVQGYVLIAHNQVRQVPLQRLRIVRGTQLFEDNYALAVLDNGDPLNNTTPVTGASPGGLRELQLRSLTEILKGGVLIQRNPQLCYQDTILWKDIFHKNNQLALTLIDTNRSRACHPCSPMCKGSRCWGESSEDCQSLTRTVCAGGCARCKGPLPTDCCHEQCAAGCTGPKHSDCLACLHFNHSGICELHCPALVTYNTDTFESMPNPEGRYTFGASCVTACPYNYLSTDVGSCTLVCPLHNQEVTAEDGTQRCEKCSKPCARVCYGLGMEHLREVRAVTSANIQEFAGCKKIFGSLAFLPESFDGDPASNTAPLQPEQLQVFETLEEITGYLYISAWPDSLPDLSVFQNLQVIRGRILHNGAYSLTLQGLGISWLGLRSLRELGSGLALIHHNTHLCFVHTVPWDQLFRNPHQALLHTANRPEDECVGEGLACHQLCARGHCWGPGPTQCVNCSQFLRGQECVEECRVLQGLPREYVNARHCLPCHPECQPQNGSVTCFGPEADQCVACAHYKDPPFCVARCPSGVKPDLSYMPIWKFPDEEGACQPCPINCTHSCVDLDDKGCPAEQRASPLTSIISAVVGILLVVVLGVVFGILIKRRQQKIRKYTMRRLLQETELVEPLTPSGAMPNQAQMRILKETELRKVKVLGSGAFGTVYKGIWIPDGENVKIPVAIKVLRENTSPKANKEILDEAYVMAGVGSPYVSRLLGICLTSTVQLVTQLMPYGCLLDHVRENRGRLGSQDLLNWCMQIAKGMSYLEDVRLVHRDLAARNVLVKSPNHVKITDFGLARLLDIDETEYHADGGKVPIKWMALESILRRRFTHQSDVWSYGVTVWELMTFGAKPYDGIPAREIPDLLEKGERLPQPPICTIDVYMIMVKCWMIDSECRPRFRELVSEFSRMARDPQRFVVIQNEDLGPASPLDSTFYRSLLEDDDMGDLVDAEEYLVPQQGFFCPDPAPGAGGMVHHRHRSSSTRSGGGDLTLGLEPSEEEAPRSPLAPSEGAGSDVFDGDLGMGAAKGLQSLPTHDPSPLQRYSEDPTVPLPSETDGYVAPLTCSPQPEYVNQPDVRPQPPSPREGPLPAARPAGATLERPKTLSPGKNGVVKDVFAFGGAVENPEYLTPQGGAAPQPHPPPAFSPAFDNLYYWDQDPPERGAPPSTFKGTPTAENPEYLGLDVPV
Chain of EGFR (P00533 whole entry): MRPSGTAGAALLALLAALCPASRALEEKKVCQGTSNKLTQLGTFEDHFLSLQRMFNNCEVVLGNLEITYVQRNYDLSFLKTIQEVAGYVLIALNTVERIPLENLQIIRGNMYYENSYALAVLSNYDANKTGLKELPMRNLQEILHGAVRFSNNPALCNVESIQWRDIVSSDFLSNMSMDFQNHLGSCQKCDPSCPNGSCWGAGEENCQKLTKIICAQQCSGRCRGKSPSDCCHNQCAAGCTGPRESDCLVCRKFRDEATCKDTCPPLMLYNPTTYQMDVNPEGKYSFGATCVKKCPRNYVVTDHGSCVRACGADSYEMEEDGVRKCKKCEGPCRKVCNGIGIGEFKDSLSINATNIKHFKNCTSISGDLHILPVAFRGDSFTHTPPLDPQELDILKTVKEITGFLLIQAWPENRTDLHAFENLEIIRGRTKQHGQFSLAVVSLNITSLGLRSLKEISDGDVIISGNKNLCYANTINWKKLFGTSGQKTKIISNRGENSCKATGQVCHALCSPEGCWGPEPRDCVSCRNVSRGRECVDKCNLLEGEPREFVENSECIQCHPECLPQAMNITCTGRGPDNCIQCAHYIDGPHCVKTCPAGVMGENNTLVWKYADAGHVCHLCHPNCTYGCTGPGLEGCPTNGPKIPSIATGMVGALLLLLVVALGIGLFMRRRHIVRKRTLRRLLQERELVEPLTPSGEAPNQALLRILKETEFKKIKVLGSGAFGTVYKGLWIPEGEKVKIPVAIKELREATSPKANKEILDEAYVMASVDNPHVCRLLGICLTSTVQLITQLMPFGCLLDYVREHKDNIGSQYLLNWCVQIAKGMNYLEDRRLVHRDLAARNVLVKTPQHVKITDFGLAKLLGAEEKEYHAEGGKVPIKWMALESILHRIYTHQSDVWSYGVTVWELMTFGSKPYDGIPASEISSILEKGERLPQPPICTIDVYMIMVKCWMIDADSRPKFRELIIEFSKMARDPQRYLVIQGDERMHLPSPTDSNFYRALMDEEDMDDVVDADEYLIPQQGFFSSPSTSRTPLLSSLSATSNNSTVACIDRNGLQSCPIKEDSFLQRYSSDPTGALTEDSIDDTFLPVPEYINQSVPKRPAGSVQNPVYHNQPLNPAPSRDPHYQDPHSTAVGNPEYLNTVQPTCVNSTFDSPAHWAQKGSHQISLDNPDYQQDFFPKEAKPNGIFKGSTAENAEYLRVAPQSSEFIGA
T6 sequence (P48736 whole entry): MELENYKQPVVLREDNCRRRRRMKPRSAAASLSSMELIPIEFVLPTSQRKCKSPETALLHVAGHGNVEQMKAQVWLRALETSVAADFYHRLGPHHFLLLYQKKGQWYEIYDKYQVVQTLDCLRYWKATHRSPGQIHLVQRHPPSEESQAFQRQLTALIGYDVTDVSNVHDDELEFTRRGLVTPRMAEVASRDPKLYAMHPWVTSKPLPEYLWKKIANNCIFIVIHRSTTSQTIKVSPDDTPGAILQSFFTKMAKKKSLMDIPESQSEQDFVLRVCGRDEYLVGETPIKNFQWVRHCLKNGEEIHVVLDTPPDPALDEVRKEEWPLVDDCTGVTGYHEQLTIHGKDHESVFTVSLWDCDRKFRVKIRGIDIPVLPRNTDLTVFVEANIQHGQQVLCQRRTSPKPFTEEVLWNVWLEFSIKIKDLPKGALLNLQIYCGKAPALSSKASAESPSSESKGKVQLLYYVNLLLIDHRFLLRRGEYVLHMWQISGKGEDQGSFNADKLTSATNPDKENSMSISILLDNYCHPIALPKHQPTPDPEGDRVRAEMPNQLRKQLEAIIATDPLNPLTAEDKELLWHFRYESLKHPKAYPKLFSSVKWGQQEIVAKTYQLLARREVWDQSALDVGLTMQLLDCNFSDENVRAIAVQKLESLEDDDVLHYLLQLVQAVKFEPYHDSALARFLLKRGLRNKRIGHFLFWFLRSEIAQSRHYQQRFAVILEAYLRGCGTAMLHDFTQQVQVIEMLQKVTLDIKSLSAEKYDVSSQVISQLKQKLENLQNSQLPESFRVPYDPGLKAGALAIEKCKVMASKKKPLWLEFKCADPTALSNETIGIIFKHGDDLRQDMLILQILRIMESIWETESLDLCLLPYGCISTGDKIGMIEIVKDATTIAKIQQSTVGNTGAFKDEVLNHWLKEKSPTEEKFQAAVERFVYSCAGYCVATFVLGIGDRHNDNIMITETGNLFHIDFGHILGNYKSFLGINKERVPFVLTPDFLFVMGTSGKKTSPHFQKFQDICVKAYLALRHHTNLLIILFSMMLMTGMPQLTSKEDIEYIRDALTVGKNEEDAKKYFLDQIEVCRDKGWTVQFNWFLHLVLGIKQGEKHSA

By pIC50 is commonly meant the negative decadic logarithm of the IC50, by convention in mol/L. As to `Cc1nc(NC(=O)N2CCC[C@H]2C(N)=O)sc1-c1ccnc(C(C)(C)C(F)(F)F)c1` [Alpelisib], the pIC50 in assay [1] was under 5.00; in assay [2], under 5.00; in [3] it was 5.53; in [4] it was under 5.00.

On to `COc1c(OCCCN2CCOCC2)ccc2c1N=C(NC(=O)c1cnc(N)nc1)N1CCN=C21` [Copanlisib], for which the pIC50 in [1] is under 5.00; in [2], under 5.00; in assay [3], 7.73; in assay [4], under 5.00.

With `CCN1CCN(Cc2ccc(-c3cc4c(N[C@H](C)c5ccccc5)ncnc4[nH]3)cc2)CC1` [NVP-AEE788], the pIC50 in assay [1] was 7.58; in assay [2] it was 6.66; in [5], under 5.00; in assay [6] it was under 5.00; in [3] it was under 5.00; in assay [7], under 5.00. Besides, the pIC50 in assay [8] is under 5.00.

With `COc1ncc(-c2ccc3nccc(-c4ccnnc4)c3c2)cc1NS(=O)(=O)c1ccc(F)cc1F` [Omipalisib], the pIC50 in assay [1] was under 5.00; in assay [2] it was under 5.00; in assay [9], 9.21; in [4] it was under 5.00.
